Measurements: patent US20190330167A1, “ACTIVATORS OF HIV LATENCY” (priority 2016, published 2019)
pEC50: −log10 of the molar value. Where two headings read alike, the source gives them in different places.

Experiments:
[1] = system: latent HIV in resting memory CD4+ T cells isolated by leukapheresis from HIV+ donors on antiretroviral therapy; assay type: cell-based, HIV-1; details: 72 hrs
From the text: FIG. 41a. […] Resting memory CD4+ T cells isolated by leukapheresis from HIV+ donors on antiretroviral therapy were reactivated for 72 hrs using known LRAs including vorinostat (Vor) also known as suberanilohydroxamic acid, another hydroxamic acid panobinostat (Pan), and the depsipeptide Romidepsin (Rom) that are all HDACi, together with JQ1 (+) which is a thienotriazolodiazepine known to inhibit the BET family of bromodomain proteins including BRD2, BRD3, and BRD4, and compared with compounds according to the present invention DP#6 (Compound 41), DP#14 (Compound 7), and DP#16 (Compound 64).
FIG. 41c. […] Resting memory CD4+ T cells isolated by leukapheresis from HIV+ donors on antiretroviral therapy were reactivated for 72 hrs using known (vorinostat, Vor; panobinostat, Pan; romidepsin, Rom; and JQ1 (+)) and compounds according to the present invention (DP#6 (Compound 41), DP#14 (Compound 7), and DP#16 (Compound 64)).
FIG. 42c. […] Resting memory CD4+ T cells isolated by leukapheresis from HIV+ donors on antiretroviral therapy were reactivated for 72 hrs using known (JQ1 (+)) and compounds according to the present invention (DP#14 (Compound 7)) alone and in combination, and HIV-1 RNA detected through qPCR.
Total peripheral blood mononuclear cells (PBMC) were stored frozen in liquid nitrogen and prior to use, vials of frozen cells (0.5×10^8 PBMCs/vial or 1×10^8 PBMCs/vial) were quick thawed in a 42° C. water bath. Cells were promptly transferred to a 15 mL tube with 5 mL FBS dropwise then, then 6 mL of RF10 was added. Cells were pelleted at 300 g for 10 min at room temperature. Following aspiration, the cells were resuspended in RF10, pooled into a 50 mL tube which was topped up with RF10. PBMC were pelleted again at 300 g for 10 min at room temperature. Following aspiration, the cells were resuspended in PBS(−/−) and counted. CD4+ T cells were then isolated from 4×10^8 PBMCs that were pelleted and resuspended in PBS(−/−) at 1×10^7 cells/40 μL. 10 μL of CD4+ T cell Biotin-Antibody cocktail (Miltenyi Biotec) for every 1×10^7 cells was added and the mix refrigerated for 5 min. 30 μL of PBS(−/−) for every 1×10^7 cells was added, and 20 μL of the CD4+ T cell MicroBeads for every 1×10^7 cells was added and the mix refrigerated for 10 min. Unlabelled CD4+ T cells were then isolated by negative selection using magnetic separation. CD4+ T cells were then counted before being diluted to 4×10^6 cells/500 μL in RF10 for each condition and seeded into a 48 well plate.
Latent HIV was reactivated in the presence of the HIV integrase inhibitor Raltagravir (Ral) to prevent any further rounds of infection. Ral was made to [2 μM] in RF10+IL-2 (2 U/mL), and used to make 1 mL preparation of each drug up at [×2]. 500 μL of the [×2 Ral/IL-2/drug] was then added to the appropriate wells containing cells. Cells were transported to PC3 and incubated for 72 hrs.
Following reactivation, 800 μL of cell supernatant was transferred to labeled 1.5 mL screwcap tubes, pelletted at 800 g for 10 min then transferred to a second set of tubes and frozen for possible use at a later date. 800 μL of PBS(−/−) was added to each well to mix the cells and 50 μL of cells transferred to another set of tubes for live/dead staining and flow cytometry. Cells were pelleted at 400 g for 10 min, the media aspirated and cells resuspended in 100 μL of a [×1] APC-cy7 live/dead stain (Life technologies).

[2] = system: HIV-1 long terminal repeat (LTR)-driven luciferase reporter gene in FlipIn.FM HEK293 cells; assay: cells; assay type: cell-based
Description: FIG. 44. […] The FlipIn.FM model of HIV-1 latency was treated with JQ1 (+) and DP#14 (Compound 7) alone at 10 μM and in combination, and the HIV-1 gene expression measured 48 hrs post treatment. Error bars represent standard deviation of n=3 experiments. OPTI represents media alone, without DP#14.
FIG. 46. […] The FlipIn.FM model of HIV-1 latency was treated with PFI-1 and DP#14 alone at 10 μM and in combination, and the HIV-1 gene expression measured 48 hrs post treatment. Error bars represent standard deviation of n=3 experiments. OPTI represents media alone, without DP#14.
Explicitly, HEK293 derived FlipIn-FM and FlipIn-RV dual reporter cells each include a single stable HIV-1 long terminal repeat (LTR)-driven luciferase reporter genes, with a second complimentary non-HIV (off-target) luciferase reporter. These cell lines model post integration latency and read-through transcription by expressing a low level of HIV-1 Tat protein via a native Internal Ribosome Entry Site (IRES) found within Tat, from a chimeric cellular-tat gene cassette. FlipIn-FM and FlipIn-RV clones were chosen for low basal levels of LTR activity and high responsiveness to Tat as well as many Latency Reversing Agents (LRAs).
The dual reporter cell lines contain three stably integrated constructs that together allow for detection of novel LRAs, capable of potent and specific HIV reactivation. The FlipIn.FM line contains a proviral LTR-driven nef/CBR reporter fusion gene, allowing for detection of viral gene expression. A second CMV-driven CBG luciferase reporter allows for detection of off target drug effects, including non-specific activation and drug toxicity. The third construct contains the first coding exon of HIV-1 tat, within human Growth Hormone (hGH) as a chimeric gene, expressing HIV-1 Tat protein from an IRES mechanism that underlies the tat exon. This construct models read-through transcription and the low level of Tat protein expression that occurs during post integration latency. The counter screening reverse cell line, FlipIn.RV, contains the same three components with the Click Beetle Luciferase genes in the opposite orientation (LTR-CBG and CMV-CBR) for counter screening.
Compounds were evaluated in an 11-point titration using normal CMV-CBG/LTR-CBR reporter cell line and an 11 point reverse CMV-CBR/LTR-CBG reporter cell line.
The FlipIn cell lines were therefore designed with a dual purpose, to detect novel compounds that reactivate HIV-1 and to also screen out compounds that behaved in a largely non-specific manner. To achieve the latter, the cell lines contain an “off target” reporter gene construct, driven by the unrelated CMV-IE promoter, that allows for the detection of drug mediated off target effects including global gene activation as well as possible toxicity.
The HIV-LTR driven latent reporter gene identifies the HIV-specific activation, and the term “global reporter” is interchangeable with “off target reporter” and refers to the unrelated CMV-IE promoter driven reporter gene, which is used as a surrogate for global gene activation. […] The highest concentration tested here was 40 μM.

## O=C(CCCOc1ccccc1)Nc1ncc(Br)s1 [Compound 7]
[1]; at 5 μM, normalized between unstimulated baseline and PMA as 100%
  induction of HIV-1 gene expression, % of the normalized value: 24%
[1]; normalized between unstimulated baseline and PMA positive control as 100%, concentration not given
  induction of HIV-1 gene expression, % of the normalized value: 24%
[2]; FlipIn.FM model, alone at 10 μM and in combination, 48 hrs post treatment
  fold change in HIV-1 gene expression over the unstimulated baseline: 4.2 fold
[2]; Human immunodeficiency virus 1, HEK293, HIV-LTR driven latent reporter, 11-point, 2-fold dilution series, highest concentration 40 μM, read-out: Latent reporter Av EC50
  pEC50: 5.79
